From patent US20140127231A1, “p38 MAPK Pathway Inhibitors as Female-Specific Therapeutics” (UNIVERSITY OF VERMONT, priority 2012, published 2014)
“Also recorded” adds a separate entry of the source.

Test system: TH1-mediated passive EAE
Experiment: Passive EAE induced by TH1 cells
Format: in vivo, mice
Conditions: polarized DLN cells transferred into naïve recipients, listed as SB
Excerpt: FIG. 5A is a schematic that illustrates that protocol of inducing passive EAE.
Based on this and the observation that IL-17 is not absolutely required for EAE progression (Haak, S et al., 2009, J Clin Invest 119:61-69), it is possible that SB prevents EAE by inhibiting production of additional key pathogenic factors. Further, it is shown that TH1-mediated passive EAE is prevented by inhibition of p38 MAPK (FIG. 5). In these experiments, donor animals were immunized with MOG35-55, DLN cells were isolated at D10 and cultured under polarizing conditions, and cells were transferred into naïve recipients. […] As such, complementary genomic and proteomic approaches were used to identify these factors, which in the future may provide novel druggable targets for treatment of autoimmune disease. Because such approaches typically yield a large number of potential candidates, a prioritizing/“funneling” scheme was constructed to rule out irrelevant hits in screens. In particular, the sexual dimorphism in response to SB serves as a useful discriminatory tool in this regard.

Compound: C[S+]([O-])c1ccc(-c2nc(-c3ccncc3)c(-c3ccc(F)cc3)[nH]2)cc1 (centres unmarked) [SB203580]
- Cytokine production / inflammatory response: decreased cytokine production; also recorded: reduces the inflammatory response
- EAE severity: reduces EAE severity; also recorded: prevents passive EAE induced by TH1 cells
